The values below come from patent publication US20220296572A1, “IMMUNOSUPPRESSIVE THERAPIES FOR USE WITH CARDIOMYOCYTE CELL THERAPIES, AND ASSOCIATED METHODS AND COMPOSITIONS” (Sana Biotechnology, Inc., priority 2021, published 2022).

One series has as its system T cells. The note with it: relative to CsA; cited from earlier work.
Series [1] can be described thus: Tacrolimus blood trough level in the rhesus recipient. Conditions: subcutaneously twice per day. In kind it is in vivo, rhesus macaque (Macaca mulatta). How it is done:
Beginning five days prior to delivery of the cell therapy composition and continuing for 16 weeks after delivery, the rhesus recipient was treated daily with tacrolimus and MMF. Tacrolimus was provided subcutaneously twice per day at a dose yielding a blood trough level of approximately 5-10 ng/mL. MMF was provided orally twice per day, for a total dose of 250 mg MMF per day. If a subject cannot tolerate oral dosing of MMF, MMF can be alternatively provided by intravenous administration. In some cases, if a subject cannot tolerate oral MMF, the subject is administered intravenous MMF until the subject can tolerate oral MMF, at which point the subject is switched from intravenous to oral MMF Immune rejection of the riPSC-CMs 16 weeks after delivery was determined by histopathological analysis.

For series [2] the following is noted: transplant recipients; cited from earlier work.

Turning to `C=CC[C@@H]1/C=C(\C)C[C@H](C)C[C@H](OC)[C@H]2O[C@@](O)(C(=O)C(=O)N3CCCC[C@H]3C(=O)O[C@H](/C(C)=C/[C@@H]3CC[C@@H](O)[C@H](OC)C3)[C@H](C)[C@@H](O)CC1=O)[C@H](C)C[C@@H]2OC` [Tacrolimus, tacrolimus], in the series with T cells, the “Concentrations giving similar effects to CsA, times lower” value is recorded as 100 times. Further, the Blood trough level in series [1] fell in the range of 5 to 10 ng/mL.

Regarding `COc1c(C)c2c(c(O)c1C/C=C(\C)CCC(=O)[O-])C(=O)OC2.[Na+]` [MS, mycophenolate sodium], in series [2], the “Safety profile relative to MMF” value is on record as “comparable safety profile” and the “Therapeutic equivalence to MMF” value was “therapeutically equivalent to MMF”.
